Where a name gives a salt, the structure may show the parent alone. Read-outs that look alike come from different tables or passages of the source.

What all share (assay type): biochemical
For one assay, the target named is T1, pseudocholinesterase (Homo sapiens, UniProt P06276).
T1 construct: hydrolysis of S-acyl substrate (BALB) with chromogenic sulfhydryl reagent
As to the kind of experiment: Eserine salicylate added to fresh human serum specimens, absorbance change between 10 and 30 minutes incubation (Example 4). The following applies: for Absorbance change: 10 to 30 minutes incubation.

For the next assay, the target named is acetyl cholinesterase (Homo sapiens, UniProt P22303).
Another assay addresses butyryl cholinesterase (Homo sapiens, UniProt P06276).
Assay [1] addresses T2, human serum containing naturally occurring pseudocholinesterases (Homo sapiens, UniProt P06276).
T2 construct: human serum containing naturally occurring pseudocholinesterases; from tissue; host or cells: human serum (Serum A, Serum B)

In the next assay the test system is lipase. The experiment in a line: Effect on lipase under the test conditions.
A short description of assay [2]: Reagent without lipase and without eserine salt, used to assay cholinesterase solutions (Example 4). The settings on record: 1.17 units of acetyl cholinesterase or 0.36 units of butyryl cholinesterase; no lipase and no eserine salt. As for the experimental part:
The four-reagent kit of Example 1 is utilized as follows, using duplicate specimen vials labelled "Patient-Blank", "Patient", "Blank 10 Minutes" and "Blank 30 Minutes", and the following procedure.
The activity of serum lipase is proportional to the absorbance at 412 nanometers, and is calculated as follows:
Lipase activity per 20 minutes= Absorbance [patient vial-Blank vial] (30 minutes) -Absorbance [patient vial-Blank vial] (10 minutes)
A reagent composition is formulated to contain the following: […]
Final pH about 8.8. Using a procedure similar to that of Example 2, the reagent was used to assay solutions containing 1.17 units of acetyl cholinesterase (a true cholinesterase) or 0.36 units of butyryl cholinesterase (a pseudocholinesterase). Acetyl cholinesterase produced an absorbance change of 0.011 absorbance units and butyryl cholinesterase produced a change of 0.421 absorbance units.

acetyl cholinesterase, sequence (P22303 32-614): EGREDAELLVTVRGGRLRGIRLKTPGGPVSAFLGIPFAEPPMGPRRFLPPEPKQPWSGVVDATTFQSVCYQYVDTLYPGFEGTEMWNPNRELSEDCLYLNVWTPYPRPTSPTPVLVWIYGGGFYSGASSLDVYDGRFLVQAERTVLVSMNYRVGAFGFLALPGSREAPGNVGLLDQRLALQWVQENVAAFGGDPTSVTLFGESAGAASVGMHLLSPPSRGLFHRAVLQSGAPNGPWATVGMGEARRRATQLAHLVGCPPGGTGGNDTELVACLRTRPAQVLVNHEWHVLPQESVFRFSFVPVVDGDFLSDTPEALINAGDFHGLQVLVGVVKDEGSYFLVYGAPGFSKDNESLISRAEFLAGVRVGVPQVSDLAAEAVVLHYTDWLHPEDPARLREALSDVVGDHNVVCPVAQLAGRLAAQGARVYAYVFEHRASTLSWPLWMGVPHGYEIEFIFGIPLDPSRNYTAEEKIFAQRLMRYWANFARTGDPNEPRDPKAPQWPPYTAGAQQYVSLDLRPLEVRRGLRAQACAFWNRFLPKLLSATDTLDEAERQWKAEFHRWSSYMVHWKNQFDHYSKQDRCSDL
T2 sequence (P06276 29-602): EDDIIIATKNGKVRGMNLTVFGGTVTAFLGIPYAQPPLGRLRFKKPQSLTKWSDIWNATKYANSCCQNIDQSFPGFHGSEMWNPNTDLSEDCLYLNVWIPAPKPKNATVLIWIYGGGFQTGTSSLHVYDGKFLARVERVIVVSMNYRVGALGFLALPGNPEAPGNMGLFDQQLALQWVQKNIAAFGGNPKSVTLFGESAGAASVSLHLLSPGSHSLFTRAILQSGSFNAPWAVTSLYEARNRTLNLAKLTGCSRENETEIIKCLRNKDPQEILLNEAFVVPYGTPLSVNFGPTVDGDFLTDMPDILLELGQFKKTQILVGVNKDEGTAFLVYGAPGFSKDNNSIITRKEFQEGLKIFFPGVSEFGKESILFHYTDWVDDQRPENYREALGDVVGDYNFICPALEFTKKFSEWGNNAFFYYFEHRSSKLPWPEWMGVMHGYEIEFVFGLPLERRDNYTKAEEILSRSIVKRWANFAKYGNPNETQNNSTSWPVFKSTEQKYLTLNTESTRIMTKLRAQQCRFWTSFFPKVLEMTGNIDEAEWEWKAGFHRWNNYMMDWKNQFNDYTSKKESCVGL
butyryl cholinesterase, sequence (P06276 29-602): as above
T1 sequence (P06276 29-602): as above

As for `CNC(=O)Oc1ccc2c(c1)[C@]1(C)CCN(C)[C@@H]1N2C` [Eserine Salicylate, Eserine salicylate], the “specificity for serum pseudocholinesterase” value at pseudocholinesterase is “highly specific for serum pseudocholinesterase”. Moreover, on pseudocholinesterase (concentrations increasing from 0.02 to 0.05 millimolar), the “improvement with increasing inhibitor concentration” value is “little or no improvement”. Further, at pseudocholinesterase (fresh human serum, Example 4), the “inhibition of pseudocholinesterase (in words)” value is “inhibition of pseudocholinesterase”. The Absorbance change on pseudocholinesterase (fresh human serum, 5 microliters (0.005 millimolar) of 1 millimolar eserine salicylate added) was found to be 0.501; at pseudocholinesterase (fresh human serum, 10 microliters of 1 millimolar eserine salicylate added), 0.495; on pseudocholinesterase (fresh human serum, 20 microliters of 1 millimolar eserine salicylate added) it was 0.475; on pseudocholinesterase (fresh human serum, 30 microliters of 1 millimolar eserine salicylate added), 0.490; on pseudocholinesterase (fresh human serum, 40 microliters of 1 millimolar eserine salicylate added), 0.496; on pseudocholinesterase (fresh human serum, 50 microliters of 1 millimolar eserine salicylate added), 0.492. The “Activity, Acetyl Cholinesterase” value at acetyl cholinesterase was 0.027 ΔAbsorbance per 20 minutes incubation. The “Activity, Butyryl Cholinesterase” value on butyryl cholinesterase is recorded as 0.182 ΔAbsorbance per 20 minutes incubation. Moreover, the “inhibition of BALB hydrolysis by pseudocholinesterase (in words)” value against butyryl cholinesterase was “significant inhibition”. Also, in assay [1], the “Activity, Serum A” value is recorded as 0.078 ΔAbsorbance per 20 minutes incubation. The “Activity, Serum B” value in assay [1] is 0.092 ΔAbsorbance per 20 minutes incubation. In the assay on lipase, the inhibition of lipase entry is reported as “does not inhibit lipase”.
With `CN(C)C(=O)Oc1cccc([N+](C)(C)C)c1` [Neostigmine Methyl Sulfate, neostigmine methylsulfate], the “Activity, Acetyl Cholinesterase” value on acetyl cholinesterase is on record as 0.025 ΔAbsorbance per 20 minutes incubation. Also, at butyryl cholinesterase, the “Activity, Butyryl Cholinesterase” value was 0.187 ΔAbsorbance per 20 minutes incubation and the “inhibition of BALB hydrolysis by pseudocholinesterase (in words)” value is listed as “significant inhibition”. In assay [1], the “Activity, Serum A” value is recorded as 0.098 ΔAbsorbance per 20 minutes incubation and the “Activity, Serum B” value is on record as 0.081 ΔAbsorbance per 20 minutes incubation.
In the case of `O=S(=O)(F)Cc1ccccc1` [PMSF, phenyl methyl sulfonyl fluoride], the “Activity, Acetyl Cholinesterase” value at acetyl cholinesterase (50 microliters of acetyl cholinesterase, 10.4 units per ml, Neostigmine Methyl Sulfate 0.037 mM, PMSF 0.37 mM) is on record as 0.021 ΔAbsorbance per 20 minutes incubation. Besides, the “Activity, Butyryl Cholinesterase” value at butyryl cholinesterase (50 microliters of butyryl cholinesterase, 7.2 units per ml, Eserine Salicylate 0.037 μm, Neostigmine Methyl Sulfate 0.037 mM, PMSF 0.37 mM) is recorded as 0.338 ΔAbsorbance per 20 minutes incubation. Further, the “Activity, Serum A” value in assay [1] (50 microliters of human Serum A, Eserine Salicylate 0.037 μm, Neostigmine Methyl Sulfate 0.037 mM, PMSF 0.37 mM) is 0.487 ΔAbsorbance per 20 minutes incubation. Moreover, the “Activity, Serum B” value in assay [1] (50 microliters of human Serum B, Eserine Salicylate 0.037 μm, Neostigmine Methyl Sulfate 0.037 mM, PMSF 0.37 mM) is recorded as 0.383 ΔAbsorbance per 20 minutes incubation. Moreover, the “effect in inhibiting the interfering hydrolysis of the S-acyl compound (in words)” value in assay [1] (serum samples, without pseudocholinesterase inhibitor) was “little or no effect”.
In the case of Acetyl cholinesterase, the Absorbance change in assay [2] is given as 0.011 absorbance units.
